The source of these data is PubChem BioAssay (NCI).

As a reminder, the GI50 is the concentration giving 50% growth inhibition. The TGI is the concentration at which net growth stops. A low value points to greater sensitivity of the cells.

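These data come from cells grown in 96-well plates and exposed to compound for 48 hours at five concentrations. Here, GI50 denotes the concentration required for 50% inhibition of growth. The concentration for full growth arrest is given as TGI.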

Common to all, as to test: DTP human tumour cell line panel, 48 h
Assay [1] deals with EKVX NSCLC.
Assay [2] relates to HOP-92 NSCLC.
Assay [3] has as its system LOX IMVI melanoma.
Assay [4] has as its system MCF7 breast.
Assay [5] deals with NCI-H460 lung.
Assay [6] deals with SK-MEL-2 melanoma.
Assay [7] has as its system SNB-75 CNS.
The test system of assay [8] is HCC-2998 colon.

Take `C[C@]12CC/C(=N\O)C[C@@H]1CC[C@@H]1[C@@H]2CC[C@]2(C)/C(=N/O)CC[C@@H]12`: the GI50 was 44.6 µM in assay [1]; above 100 µM in assay [2]; 21.3 µM in assay [3]; 26.1 µM in assay [4]; 34.2 µM in assay [5]; 32.9 µM in assay [6]. For the same compound, in assay [7], the GI50 is 37.3 µM. In addition, the TGI in assay [1] is above 100 µM; in assay [2], above 100 µM; in assay [3], 50.7 µM; in assay [4], 98.8 µM; in assay [5], above 100 µM; in assay [6], 97 µM. In assay [7], the TGI is above 100 µM.
As for `N#Cc1c(N)n(C2OC(CO)C(O)C2O)c2ncnc(N)c12` (stereo not drawn), the TGI in assay [1] is above 100 µM; in assay [8], 0.509 µM; in assay [2], above 100 µM; in assay [3] it was 0.0595 µM; in assay [4] it was 1.21 µM; in assay [7] it was 3.56 µM. The concentration for 50% growth inhibition (GI50) in assay [8] was 0.145 µM.
Turning to `COc1ccc2c3c(ccc2c1)NC(C(=O)O)CC3` (stereo not drawn), the concentration for total growth inhibition (TGI) in assay [1], in assay [8], in assay [2], in assay [3], in assay [4] and in assay [5] was above 100 µM in each case. Also, the TGI in assay [6] and in assay [7] was above 100 µM throughout.
For `COc1cc(-c2nn(-c3ccc(NC(=O)Nc4ccc(Cl)c(C(F)(F)F)c4)cc3)cc2-c2ccncc2)ccc1Cl`, the GI50 in assay [1] is 1.1 µM; in assay [8] it was 1.64 µM; in assay [2] it was 1.82 µM; in assay [3] it was 1.43 µM; in assay [4], 2.51 µM; in assay [5], 1.71 µM. In assay [7], the GI50 is 1.28 µM. Also, the TGI in assay [1] was determined as 3.95 µM; in assay [8] it was 3.1 µM; in assay [2], 5.85 µM; in assay [3], 2.78 µM; in assay [4], 8.28 µM; in assay [5] it was 3.62 µM. In addition, the TGI in assay [7] came out at 4.03 µM.
For the compound `CN(C)C(=O)C(NCCO)c1ccccc1` (stereo not drawn), the TGI in assay [1], in assay [8], in assay [2], in assay [3], in assay [4] and in assay [5] was above 100 µM throughout. Besides, the TGI in assay [6] and in assay [7] was above 100 µM each time.
Consider `COc1ccc2c(c1)O/C(=C\c1ccc([N+](=O)[O-])o1)C2=O`, for which the GI50 was 1.81 µM in assay [8]; 1.95 µM in assay [2]; 1.14 µM in assay [3]; 0.345 µM in assay [4]; 0.598 µM in assay [5]; 2.13 µM in assay [6]. Further, the GI50 in assay [7] was 2.24 µM. The TGI in assay [8] was determined as 3.64 µM; in assay [2], 5.62 µM; in assay [3] it was 2.96 µM; in assay [4], 3.12 µM; in assay [5], 3.89 µM; in assay [6], 4.01 µM. Further, the TGI in assay [7] came out at 8.26 µM.
For `Nc1nc(=O)c2[nH]cnc2n1O`, the TGI in assay [1], in assay [2], in assay [3], in assay [4], in assay [5] and in assay [6] was above 100 µM each time. The concentration for total growth inhibition (TGI) in assay [7] is above 100 µM.
As for `OCCNC(=S)Nc1ccc(-c2nc(N3C[C@H]4CC[C@@H](C3)O4)c3cccn3n2)cc1`, the GI50 in assay [1] is 0.0629 µM; in assay [8] it was 0.0779 µM; in assay [2], below 0.0133 µM; in assay [3] it was 0.202 µM; in assay [4], 0.0231 µM; in assay [5], 0.0312 µM. Moreover, the GI50 in assay [6] was 0.0637 µM; in assay [7], below 0.0124 µM. The TGI in assay [1] worked out at 6.59 µM; in assay [8] it was 18.6 µM; in assay [2] it was 0.161 µM; in assay [3] it was 7.65 µM; in assay [4], 11.4 µM; in assay [5], 19.4 µM. In addition, the TGI was determined as 0.579 µM in assay [6] and 0.264 µM in assay [7].
`COc1ccc(Nc2[nH]n(C3=Nc4ccccc4Sc4ccccc43)c(=O)c2C#N)cc1`: the GI50 was 0.781 µM in assay [1]; 2.32 µM in assay [8]; 1.37 µM in assay [3]; 2.18 µM in assay [4]; 1.95 µM in assay [5]; 1.74 µM in assay [6]. Besides, the GI50 in assay [7] was 1.51 µM. The TGI in assay [1] was above 100 µM; in assay [8], 10.5 µM; in assay [3] it was 4.27 µM; in assay [4], 11.7 µM; in assay [5] it was 12 µM; in assay [6], 5 µM. In addition, in assay [7], the TGI is above 100 µM.
As for `COC1=CC(=O)c2c(O)c3c(c(O)c2C1=O)OC1(Oc2c(cc4cc(C)oc(=O)c4c2O)CC1O)C3O` (stereo not drawn), the TGI in assay [1] is 57 µM; in assay [8], 63.8 µM; in assay [2], above 100 µM; in assay [3] it was above 100 µM; in assay [4], above 100 µM; in assay [5], 67.8 µM. For the same compound, the TGI in assay [6] and in assay [7] was above 100 µM each time.
On to `COc1ccc(-c2c(-c3cc4c(c(OC)c3OC)OCO4)noc2N)cc1`, for which the GI50 is 4.12 µM in assay [1]; 0.575 µM in assay [8]; 0.679 µM in assay [2]; 0.48 µM in assay [3]; 0.282 µM in assay [4]; 0.379 µM in assay [5]. Also, the results for the GI50 in assay [6] and in assay [7] were 0.235 µM and 0.138 µM, respectively. Besides, the TGI is above 100 µM in assay [1]; 6.96 µM in assay [8]; 46.3 µM in assay [2]; above 100 µM in assay [3]; above 77.5 µM in assay [4]; above 45.2 µM in assay [5]. This compound also showed a total growth inhibition concentration (TGI) in assay [7] of 0.489 µM.
As for `CC(C)(C)n1nc(C2CC2)cc1NC(=O)Nc1ccc(Cl)cc1`, the TGI in assay [1], in assay [8], in assay [2], in assay [3], in assay [4] and in assay [5] was above 100 µM each time. For the same compound, the concentration for total growth inhibition (TGI) in assay [6] and in assay [7] was above 100 µM in each case.
